Data set [1] is described as follows: Binding affinity to trimethyl-lysine (unknown origin) assessed as dissociation constant. On the set-up: species or system Homo sapiens.
Data set [2] can be described thus: Binding affinity to Methyl-lysine (unknown origin) assessed as dissociation constant. On the set-up: species or system Homo sapiens.
The nature of data set [3]: Inhibition of influenza A virus A/H3N2 neuraminidase.
The subject of a further data set is Caco-2. Briefly: Anticancer activity against human Caco-2 cells assessed as inhibition of cell viability. It is filed as functional, cell-based.
A further data set deals with HT-29. Briefly: Anticancer activity against human HT-29 cells assessed as reduction in cell viability incubated for 24 hrs by MTT assay. It counts as functional, cell-based. Conditions: HT-29, 24 h. (In general: Tetrazolium assays rely on reduction of a dye to a coloured formazan, in cell work by metabolically active cells.)
The target in another data set is bovine serum albumin (Bos taurus, UniProt P02769). Put plainly: Inhibition of bovine serum albumin at 1 uM by SPR analysis relative to control. The following applies: cattle.

The values that follow come from ChEMBL document CHEMBL5537139, “Promises of anionic calix[n]arenes in life science: State of the art in 2023” (Eur J Med Chem, 2024).

Sequence of bovine serum albumin (P02769 whole entry): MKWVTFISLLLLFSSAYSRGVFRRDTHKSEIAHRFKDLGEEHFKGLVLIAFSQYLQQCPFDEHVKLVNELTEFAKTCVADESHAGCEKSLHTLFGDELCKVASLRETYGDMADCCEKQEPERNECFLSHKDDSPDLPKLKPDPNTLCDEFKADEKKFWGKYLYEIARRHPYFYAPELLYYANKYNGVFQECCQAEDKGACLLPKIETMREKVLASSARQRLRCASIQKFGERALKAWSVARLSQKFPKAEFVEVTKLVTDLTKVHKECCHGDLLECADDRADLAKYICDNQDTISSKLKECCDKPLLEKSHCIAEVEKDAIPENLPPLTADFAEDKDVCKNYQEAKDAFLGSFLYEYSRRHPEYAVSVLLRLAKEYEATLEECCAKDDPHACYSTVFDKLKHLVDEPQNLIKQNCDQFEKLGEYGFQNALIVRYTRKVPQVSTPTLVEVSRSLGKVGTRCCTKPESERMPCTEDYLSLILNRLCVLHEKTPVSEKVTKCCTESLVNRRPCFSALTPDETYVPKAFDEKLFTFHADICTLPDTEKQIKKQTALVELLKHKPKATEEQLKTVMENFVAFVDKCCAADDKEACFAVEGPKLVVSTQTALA

The Kd is the concentration at which binding is half-saturated. Regarding `O=S(=O)(O)c1cc2c(O)c(c1)Cc1cc(S(=O)(=O)O)cc(c1O)Cc1cc(S(=O)(=O)O)cc(c1O)Cc1cc(S(=O)(=O)O)cc(c1O)C2`, the results for the Kd in data set [1] and in data set [2] were 27 µM and 15.6 µM, respectively.

As a reminder, the IC50 is the concentration needed to halve the response being measured. `O=S(=O)(O)c1cc2c(O)c(c1)Cc1cc(S(=O)(=O)O)cc(c1O)Cc1cc(S(=O)(=O)O)cc(c1O)Cc1cc(S(=O)(=O)O)cc(c1O)Cc1cc(S(=O)(=O)O)cc(c1O)Cc1cc(S(=O)(=O)O)cc(c1O)Cc1cc(S(=O)(=O)O)cc(c1O)Cc1cc(S(=O)(=O)O)cc(c1O)C2`: in data set [3], half-maximal inhibition (IC50) was put at 6.4 µM.

As for `CCCCCCOc1c2cc(P(=O)(O)O)cc1Cc1cc(P(=O)(O)O)cc(c1OCCCCCC)Cc1cc(P(=O)(O)O)cc(c1OCCCCCC)Cc1cc(P(=O)(O)O)cc(c1OCCCCCC)C2`, the results for the IC50 in the data set on Caco-2 and with HT-29 were 3.88 µM and 8.79 µM, respectively. The inhibition is the percentage by which the read-out fell short of the control. `CC[C@@]1(O)C(=O)OCc2c1cc1n(c2=O)Cc2cc3ccccc3nc2-1` [CAMPTOTHECIN] came in with an inhibition at 1 µM against bovine serum albumin of 98%. The compound `COc1cccc2c1C(=O)c1c(O)c3c(c(O)c1C2=O)C[C@@](O)(C(=O)CO)C[C@@H]3O[C@H]1C[C@H](N)[C@H](O)[C@H](C)O1` [DOXORUBICIN] displayed an inhibition at 1 µM on bovine serum albumin of 87%. Compound `CO[C@@]12[C@H](COC(N)=O)C3=C(C(=O)C(C)=C(N)C3=O)N1C[C@@H]1N[C@@H]12` [MITOMYCIN] registered an inhibition at 1 µM against bovine serum albumin of 94%.
